Results: ChEMBL document CHEMBL1144419, “N-terminal fatty acylated His-dPhe-Arg-Trp-NH(2) tetrapeptides: influence of fatty acid chain length on potency and selectivity at the mouse melanocortin receptors and human melanocytes” (J Med Chem, 2005)

How the values were obtained:
Format in all cases: functional
Melanocortin receptor 3 = Melanocortin receptor 3 (Mus musculus, UniProt P33033); test: In vitro agonist potency for Mouse Melanocortin 3 receptor
[1] = target: Melanocyte-stimulating hormone receptor (Mus musculus, UniProt Q01727); test: In vitro agonist potency for Mouse Melanocortin 1 receptor
Melanocortin receptor 5 = Melanocortin receptor 5 (Mus musculus, UniProt P41149); test: In vitro agonist potency for Mouse Melanocortin 5 receptor
Melanocortin receptor 4 = Melanocortin receptor 4 (Mus musculus, UniProt P56450); test: In vitro agonist potency for Mouse Melanocortin 4 receptor
Melanocortin receptor 4, sequence (P56450 whole entry): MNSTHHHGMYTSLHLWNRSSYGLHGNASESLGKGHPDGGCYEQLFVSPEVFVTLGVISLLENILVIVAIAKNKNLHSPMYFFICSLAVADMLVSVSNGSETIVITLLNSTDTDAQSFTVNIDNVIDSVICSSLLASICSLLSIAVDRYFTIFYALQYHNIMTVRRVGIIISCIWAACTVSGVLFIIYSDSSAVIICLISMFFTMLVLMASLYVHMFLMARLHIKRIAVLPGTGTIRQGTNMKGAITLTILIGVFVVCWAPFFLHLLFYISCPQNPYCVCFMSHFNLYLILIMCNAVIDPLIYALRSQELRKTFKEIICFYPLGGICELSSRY

Melanocyte-stimulating hormone receptor, sequence (Q01727 whole entry): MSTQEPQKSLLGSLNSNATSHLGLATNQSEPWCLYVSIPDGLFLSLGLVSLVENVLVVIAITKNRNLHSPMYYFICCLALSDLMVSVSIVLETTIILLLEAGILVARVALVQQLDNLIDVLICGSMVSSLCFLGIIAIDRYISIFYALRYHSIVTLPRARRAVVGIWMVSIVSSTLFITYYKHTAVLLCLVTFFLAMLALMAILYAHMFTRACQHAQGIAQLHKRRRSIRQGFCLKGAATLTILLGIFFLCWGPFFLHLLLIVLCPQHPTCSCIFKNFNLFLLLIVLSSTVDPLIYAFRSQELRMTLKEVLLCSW
Melanocortin receptor 5, sequence (P41149 whole entry): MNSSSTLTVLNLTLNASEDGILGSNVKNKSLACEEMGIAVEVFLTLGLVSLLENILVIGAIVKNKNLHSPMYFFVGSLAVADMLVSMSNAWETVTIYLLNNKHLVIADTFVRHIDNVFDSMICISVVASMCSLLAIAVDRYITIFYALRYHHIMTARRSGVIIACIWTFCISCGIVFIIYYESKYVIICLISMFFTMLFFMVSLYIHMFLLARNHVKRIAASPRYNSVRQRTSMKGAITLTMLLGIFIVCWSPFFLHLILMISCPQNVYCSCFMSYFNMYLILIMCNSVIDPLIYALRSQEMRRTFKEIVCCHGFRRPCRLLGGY
Melanocortin receptor 3, sequence (P33033 whole entry): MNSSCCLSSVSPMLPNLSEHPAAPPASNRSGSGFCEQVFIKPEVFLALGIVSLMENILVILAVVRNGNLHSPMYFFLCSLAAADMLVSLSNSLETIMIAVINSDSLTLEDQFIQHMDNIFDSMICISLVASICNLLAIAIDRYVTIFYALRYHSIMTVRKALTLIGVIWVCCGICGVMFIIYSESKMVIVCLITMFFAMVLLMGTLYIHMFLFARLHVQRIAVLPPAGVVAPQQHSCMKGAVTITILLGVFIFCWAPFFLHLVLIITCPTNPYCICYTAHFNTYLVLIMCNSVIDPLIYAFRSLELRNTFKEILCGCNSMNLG

Row | SMILES | EC50 (Melanocortin receptor 3) [nM] | EC50 [1] [nM] | EC50 (Melanocortin receptor 5) [nM] | EC50 (Melanocortin receptor 4) [nM]
1 | CCCCCCCCCC(=O)N[C@@H](Cc1c[nH]cn1)C(=O)N[C@H](Cc1ccccc1)C(=O)N[C@@H](CCCN=C(N)N)C(=O)N[C@@H](Cc1c[nH]c2ccccc12)C(N)=O | 44.8 | 3.34 | 4.83 | 14.4
2 | CCCCCCCCCCCCCC(=O)N[C@@H](Cc1c[nH]cn1)C(=O)N[C@H](Cc1ccccc1)C(=O)N[C@@H](CCCN=C(N)N)C(=O)N[C@@H](Cc1c[nH]c2ccccc12)C(N)=O | 220 | 0.58 | 3.39 | 10.5
3 | CCCCCCCCC(=O)N[C@@H](Cc1cnc[nH]1)C(=O)N[C@H](Cc1ccccc1)C(=O)N[C@@H](CCCNC(=N)N)C(=O)N[C@@H](Cc1c[nH]c2ccccc12)C(N)=O | 5.1 | 0.4 | 0.88 | 1.14
4 | CCCCCCCCCCCCC(=O)N[C@@H](Cc1cnc[nH]1)C(=O)N[C@H](Cc1ccccc1)C(=O)N[C@@H](CCCNC(=N)N)C(=O)N[C@@H](Cc1c[nH]c2ccccc12)C(N)=O | 139 | 0.94 | 4.43 | 20.6
5 | CCCCCCCC(=O)N[C@@H](Cc1c[nH]cn1)C(=O)N[C@H](Cc1ccccc1)C(=O)N[C@@H](CCCN=C(N)N)C(=O)N[C@@H](Cc1c[nH]c2ccccc12)C(N)=O | 9.29 | 0.33 | 0.57 | 2.52
6 | CCCCCCCCCCCCCCCC(=O)N[C@@H](Cc1cnc[nH]1)C(=O)N[C@H](Cc1ccccc1)C(=O)N[C@@H](CCCNC(=N)N)C(=O)N[C@@H](Cc1c[nH]c2ccccc12)C(N)=O | 154 | 0.99 | 2.99 | 26.6
7 | N=C(N)NCCC[C@H](NC(=O)[C@@H](Cc1ccccc1)NC(=O)[C@@H](N)Cc1cnc[nH]1)C(=O)N[C@@H](Cc1c[nH]c2ccccc12)C(N)=O | 250 | 67 | 2.78 | 18.5
8 | CCCCCCCCCCCCCCC(=O)N[C@@H](Cc1c[nH]cn1)C(=O)N[C@H](Cc1ccccc1)C(=O)N[C@@H](CCCN=C(N)N)C(=O)N[C@@H](Cc1c[nH]c2ccccc12)C(N)=O | 134 | 2.07 | 3.02 | 13.2
9 | CCCCCCCCCCCCCCCCC(=O)N[C@@H](Cc1c[nH]cn1)C(=O)N[C@H](Cc1ccccc1)C(=O)N[C@@H](CCCN=C(N)N)C(=O)N[C@@H](Cc1c[nH]c2ccccc12)C(N)=O | 266 | 0.72 | 2.82 | 21.4
10 | CCCCCCCCCCC(=O)N[C@@H](Cc1cnc[nH]1)C(=O)N[C@H](Cc1ccccc1)C(=O)N[C@@H](CCCNC(=N)N)C(=O)N[C@@H](Cc1c[nH]c2ccccc12)C(N)=O | 102 | 2.8 | 10 | 19
11 | CC(=O)N[C@@H](Cc1cnc[nH]1)C(=O)N[C@H](Cc1ccccc1)C(=O)N[C@@H](CCCN=C(N)N)C(=O)N[C@@H](Cc1c[nH]c2ccccc12)C(N)=O | – | – | – | 10.7
